Read-outs that look alike come from different tables or passages of the source.
Key:
[1] = biological target: T1, NS3 ATPase activity (HCV NS3 protein) (Hepatitis C virus genotype 1b, UniProt Q9WMX2); test: Radioisotope labeling ATP hydrolysis (ATPase) assay; type: biochemical; settings: for NS3 ATPase inhibition (result in words): structure-activity discussion of Table 2
Description: (§1) Following our previous report, unless otherwise stated, the standard assay reaction (10 μL) contained the following components: 25 mM MOPS-NaOH (pH 7.0), 1 mM DTT, 5 mM MgCl2, 5 mM CaCl2, 1 mM [γ-^32P] ATP, 300 nM NS3, and 0.1 μg/μL poly(U) with serial dilution of the tested compounds in DMSO. Samples were incubated at 37 °C for 10 min, and the reaction was terminated by adding 15 μL of stop solution (10 mM EDTA). A small portion (2 μL) of reaction mixture was spotted on a PEI-cellulose TLC plate (Merck Millipore, Darmstadt, Germany) and developed by ascending chromatography in 0.75 M LiCl/1 M formic acid solution for 25 min. The TLC plate was then air-dried, and applied to autoradiography measured by an Image Reader FLA-9000 and quantified by Multi Gauge V3.11 software (Fujifilm, Tokyo, Japan). For the bacterial alkaline phosphatase assay, the buffer provided with the kit (Takara Bio, Otsu, Japan) was used, and then subjected to the assay as described above.

Toxicity assay (MTS) = type: cell-based; settings: cell lines harboring the subgenomic replicon RNAs, replicon cells, read-out: cytotoxic effect, CC50
Description: MTS assay was carried out to determine cytotoxicity using a CellTiter 96 aqueous one-solution cell proliferation assay kit (Promega) according to the manufacturer’s instructions.

NS3 RNA binding = NS3 RNA binding (Hepatitis C virus genotype 1b, UniProt Q9WMX2); test: Gel mobility shift assay (NS3 binding to ssRNA)
Description: GMSA was performed with slight modification as described previously. In brief, [γ-^32P] ATP-labeled single-stranded RNA (0.4 nM) was incubated in a buffer containing 30 mM Tris-HCl pH 7.5, 100 mM NaCl, 2 mM MgCl2, 1 mM DTT, 20 U of RNasin plus (Promega) in the presence of 300 nM NS3 protein with serial dilution of PBDE in DMSO at room temperature for 15 min in a final reaction volume of 20 μL. The protein-RNA complexes were loaded onto a 6% native-PAGE (acrylamide:bis = 19:1) and after electrophoresis in TBE buffer, the labeled RNA bands were visualized and quantified with an Image Reader FLA-9000 (Fujifilm) and Multi Gauge V3.11 software (Fujifilm), respectively.

[2] = biological target: T2, bacterial alkaline phosphatase (Escherichia coli, UniProt P00634); test: ATPase assay with bacterial alkaline phosphatase (specificity); type: biochemical; settings: highest concentration tested, 200 μM
T2 construct: purchased Takara Bio BAPC75
Description: as §1

HCV NS3 helicase = HCV NS3 helicase (Hepatitis C virus genotype 1b, UniProt Q9WMX2); type: biochemical; settings: FRET screening; strongest of 41 extracts
[3] = biological target: T1, NS3 ATPase activity (HCV NS3 protein); test: Radioisotope labeling ATP hydrolysis (ATPase) assay; type: biochemical; settings: PBDE 0.1 mM, NS3 600 nM, 1 mM ATP
[4] = system: subgenomic replicon RNA of genotype 1b N strain; test: HCV replication assay (subgenomic replicon, luciferase); type: cell-based; settings: Hepatitis C virus, genotype 1b strain N replicon, 72 h, read-out: suppression of HCV replication, EC50
Description: The cell lines harboring the subgenomic replicon RNAs of genotype 1b strain N [27] were seeded at 2 × 10^4 cells per well in a 48-well plate 24 h before treatment. The cells were treated with PBDE at various concentrations for 72 h and lysed in cell culture lysis reagent (Promega). A luciferase assay system (Promega) was used to determine the luciferase activity, and the luminescence was measured using Luminescencer-JNR AB-2100 (ATTO, Tokyo, Japan), corresponding to the expression level of the HCV replicon.

[5] = 300 nM NS3, 1 mM [γ-32P] ATP, read-out: NS3 ATPase Inhibition IC50

T1 sequence (Q9WMX2 1027-1657): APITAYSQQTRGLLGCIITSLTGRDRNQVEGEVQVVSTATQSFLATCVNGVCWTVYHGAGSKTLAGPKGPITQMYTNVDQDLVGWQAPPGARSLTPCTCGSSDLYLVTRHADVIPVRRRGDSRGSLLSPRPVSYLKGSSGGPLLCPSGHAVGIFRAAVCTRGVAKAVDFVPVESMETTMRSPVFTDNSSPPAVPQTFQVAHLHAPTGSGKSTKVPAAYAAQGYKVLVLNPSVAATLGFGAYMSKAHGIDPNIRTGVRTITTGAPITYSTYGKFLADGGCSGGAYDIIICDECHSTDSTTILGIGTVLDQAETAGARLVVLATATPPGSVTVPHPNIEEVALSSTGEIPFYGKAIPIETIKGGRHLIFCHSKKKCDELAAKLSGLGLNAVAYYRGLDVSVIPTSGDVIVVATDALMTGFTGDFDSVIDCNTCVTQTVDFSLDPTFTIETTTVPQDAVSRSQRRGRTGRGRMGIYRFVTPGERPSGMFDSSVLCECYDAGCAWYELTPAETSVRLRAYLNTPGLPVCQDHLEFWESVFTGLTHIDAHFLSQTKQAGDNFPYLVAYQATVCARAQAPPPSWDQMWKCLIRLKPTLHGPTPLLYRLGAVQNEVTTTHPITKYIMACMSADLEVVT
Sequence of HCV NS3 helicase (Q9WMX2 1027-1657): as above
Sequence of NS3 RNA binding (Q9WMX2 1027-1657): as above
T2 sequence (P00634 22-471): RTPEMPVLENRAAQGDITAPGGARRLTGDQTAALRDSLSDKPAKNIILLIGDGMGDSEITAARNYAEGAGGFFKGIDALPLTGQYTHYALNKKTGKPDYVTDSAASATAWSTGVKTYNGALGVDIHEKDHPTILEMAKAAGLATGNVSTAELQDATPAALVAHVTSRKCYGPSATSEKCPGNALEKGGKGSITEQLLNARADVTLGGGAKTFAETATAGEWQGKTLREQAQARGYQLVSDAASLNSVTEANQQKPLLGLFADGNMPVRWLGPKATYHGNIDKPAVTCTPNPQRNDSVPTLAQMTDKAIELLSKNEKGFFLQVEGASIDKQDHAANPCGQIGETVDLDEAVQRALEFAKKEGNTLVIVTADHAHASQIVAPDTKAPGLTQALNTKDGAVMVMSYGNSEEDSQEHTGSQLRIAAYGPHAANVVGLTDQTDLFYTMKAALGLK

Row | SMILES | NS3 ATPase inhibition (result in words) [1] | IC50 [1] | other results
1 | Oc1c(-c2ccccc2)cc(-c2ccc(Br)cc2)cc1-c1ccccc1 [Compound 16, 4-(4-bromophenyl)-2,6-diphenylphenol] | did not show inhibitory activity |  | IC50 [1, 5]: > 200 µM
2 | Oc1ccccc1-c1ccccc1 [Compound 7, O-hydroxybiphenyl] | loss of the inhibitory activity | > 200 µM | 
3 | CC(C)(c1cc(Cl)c(O)c(Cl)c1)c1cc(Cl)c(O)c(Cl)c1 [Compound 9, tetrachlorobisphenol A] | same level of inhibition as that of bromophene 3 | 94 µM | 
4 | Oc1c(Br)cc2ccccc2c1-c1c(O)c(Br)cc2ccccc12 [Compound 12, (R)-(+)-3-3'-dibromo-1,1'-bi-2-naphthol] | no activity |  | IC50 [1, 5]: > 200 µM
5 | Oc1c(Br)cc(Br)cc1-c1cc(Br)cc(Br)c1O [Compound 3, Bromophene] | remained at the same level as that of PBDE (1) | 94 µM | 
6 | CC(C)(c1cc(Br)c(O)c(Br)c1)c1cc(Br)c(O)c(Br)c1 [Compound 6, 3,3',5,5'-tetrabromobisphenol A] | same level of inhibition as that of bromophene 3 | 120 µM | 
7 | Oc1cc(Br)cc(Br)c1Oc1ccc(Br)cc1Br [Compound 1, 6-hydroxy-2,2',4,4'-tetrabromodiphenyl ether] |  | 80 µM | CC50 at 72 h (Toxicity assay (MTS)): > 5 µM; IC50 (NS3 RNA binding): 68 µM; inhibition of ATPase activity of bacterial alkaline phosphatase [2]: no inhibition; inhibition of NS3 helicase activity (HCV NS3 helicase): 37%; NS3 ATPase inhibition in presence and absence of poly(U) RNA [3]: significantly active in both the presence and absence of poly(U); EC50 [4]: 3.3 µM
8 | COc1cc(Br)cc(Br)c1Oc1ccc(Br)cc1Br [Compound 2, PBDE methyl ether] | complete loss of the inhibitory activity | > 200 µM | 
9 | Oc1ccc(Cl)cc1-c1cc(Cl)c(Cl)c(Cl)c1Cl [Compound 15, 2-Hydroxy-2',3',4',5,5'-pentachlorobiphenyl] | most potent inhibitory activity of all the analogs in this study | 54 µM | 
10 | Oc1c(Br)cc(Br)cc1Br [Compound 5, 2,4,6-tribromophenol] | did not exhibit the inhibitory activity | > 200 µM | 
11 | Oc1cc(Cl)ccc1Oc1ccc(Cl)cc1Cl [Compound 4, triclosan, reference compound] | moderate levels of inhibition | 150 µM | 
12 | Oc1c(F)c(F)c(-c2c(F)c(F)c(F)c(F)c2F)c(F)c1F [Compound 11, 2,3,5,6-tetrafluoro-4-(pentafluorophenyl)phenol] | inactive | > 200 µM | 
13 | Oc1ccc2cc(Br)ccc2c1Br [Compound 10, 1,6-dibromo-2-naphthol] | did not exhibit the inhibitory activity | > 200 µM | 
14 | Oc1c(Br)cc2c(c1-c1c(O)c(Br)cc3c1CCCC3)CCCC2 [Compound 13, (R)-(+)-3,3'-dibromo-5,5',6,6',7,7',8,8'-octahydro-1,1'-bi-2,2'-naphthalenediol] | no activity |  | IC50 [1, 5]: > 200 µM
15 | Brc1ccc(Oc2ccc(Br)cc2Br)c(Br)c1 [Compound 17, 2,2',4,4'-tetrabromodiphenyl ether] | complete loss of the inhibitory activity | > 200 µM | 
16 | CC(C)(c1cc(Br)c(OCCO)c(Br)c1)c1cc(Br)c(OCCO)c(Br)c1 [Compound 14, 4,4'-isopropylidenebis[2-(2,6-dibromophenoxy)ethanol]] | loss of activity | > 200 µM | 
17 | Oc1ccc2cc(Br)ccc2c1-c1c(O)ccc2cc(Br)ccc12 [Compound 8, (R)-(−)-6,6'-dibromo-1,1'-bi-2-naphthol] | most potent activity |  | IC50 [1, 5]: 54 µM
